The solubility is the concentration that dissolves in the medium under given conditions. Lower therefore signals little dissolved substance. For orientation: pEC50 means −log10 of the EC50, conventionally taken in molar units.

Results on 13 molecules are retold here after US11795204B2 (Zealand Pharma A/S, priority 2012, dated 2023).

One data set can be described thus: physchem. Conditions: pH 7.5. On the procedure: A stock solution of the test peptide (2 mg/ml; determined by measurement of the absorption of the solution at 280 nm, and using the theoretical extension coefficient based on the content of tryptophan and tyrosine in the peptide) in demineralized water adjusted to pH 2.5 with HCl was prepared, and aliquots were diluted 1:1 in 100 mM acetate buffer (pH 4.0) and 100 mM phosphate buffer (pH 7.5), respectively, and loaded in a standard flat-bottom, non-sterile 96-well UV Microplate. The absorbance of samples (single samples, n=1) at 280 and 325 nm was measured in an absorbance-based plate reader, which was preheated to ambient temperature.

In the next data set the target is T1, human Glucagon-R (Homo sapiens, UniProt P47871).
T1 construct: expressed in transfected cells
T1 sequence (P47871 26-477): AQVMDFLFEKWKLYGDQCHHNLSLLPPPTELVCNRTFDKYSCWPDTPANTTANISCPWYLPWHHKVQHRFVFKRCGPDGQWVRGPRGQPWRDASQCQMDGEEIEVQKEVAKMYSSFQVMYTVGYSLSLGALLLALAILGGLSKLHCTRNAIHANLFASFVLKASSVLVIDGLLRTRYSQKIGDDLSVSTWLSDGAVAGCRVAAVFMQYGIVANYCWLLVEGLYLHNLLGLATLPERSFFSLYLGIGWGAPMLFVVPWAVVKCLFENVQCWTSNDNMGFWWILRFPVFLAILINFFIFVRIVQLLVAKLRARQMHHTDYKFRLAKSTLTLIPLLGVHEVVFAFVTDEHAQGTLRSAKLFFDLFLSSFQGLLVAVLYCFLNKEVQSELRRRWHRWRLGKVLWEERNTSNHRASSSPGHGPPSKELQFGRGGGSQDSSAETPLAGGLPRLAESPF
Nature of the data set: Glucagon receptor assay (cAMP induction, AlphaScreen). It counts as cell-based. Conditions: HEK293 cells expressing the human Glucagon-R, 15 min at 37° C., read-out: GCG-R EC50 in vitro. On the procedure:
The 5′-end primers additionally encoded a near-Kozak consensus sequence to ensure efficient translation. […] 48 hr after transfection, cells were seeded for limited dilution cloning and selected with 1 mg/ml G418 in the culture medium.
On the day of analysis, growth medium was removed and the cells were washed once with […] of the included Assay buffer with IBMX. Cells were incubated in […] Assay buffer/IBMX containing increasing concentrations of test peptides for 15 min at 37° C. Then the peptides/Assay buffer was removed and cells were lysed by addition of […] Lysis buffer pr. well and incubation for at least 10 min at room temperature. From each well […] cell lysate was transferred to a 384-well OptiPlate and mixed with Donor and Acceptor beads and incubated for 1 h at room temperature. The cAMP content was measured on an Envision plate reader.
A general note: Bead proximity is the source of the signal in Alpha formats.

Data set [1] can be described thus: Chemical stability assessment (RP-HPLC normalized purity). In kind it is physicochemical. Conditions: for Normalized purity pH 4.0 after 14 days: 1 mg/ml in 50 mM acetate buffer pH 4.0, 40° C.; for Normalized purity pH 7.5 after 14 days: 1 mg/ml in 50 mM phosphate buffer pH 7.5, 40° C. On the procedure:
Samples were placed in glass vials and incubated at 40° C. The samples were analysed by reverse-phase HPLC on a C18 column with gradient elution using an acetonitrile/trifluoroacetic acid/water eluent system. The area-percentage (area-%) of the main peak after incubation time T=t (relative to time T=0) was detected by UV spectrometry at 220 nm. The purity was first determined as follows: Purity(area-%)=(area of main peak/total area of all peaks)×100. […] Normalized purity values in Table 2 were determined after 14 days of incubation.

pEC50: −log10 of the molar value. Square brackets hold non-standard residues; d marks the D form. Peptide text beside a SMILES is read from it. Dap = NC[C@H](N)C(=O)O; Aib = CC(C)(N)C(=O)O

In the data set “physchem”, “H-HSQGTFTSDYSKYLDKARAEDFVKWLEST-OH [Compound 3]” registered a solubility not below 1000 µg/mL. Besides, the pEC50 at human Glucagon-R was 10.52. Besides, in data set [1], the “Normalized purity pH 4.0 after 14 days” value is 85.0% and the “Normalized purity pH 7.5 after 14 days” value is 86.5%.

The molecule `CC(C)C[C@H](NC(=O)[C@H](Cc1c[nH]c2ccccc12)NC(=O)[C@H](CCCCN)NC(=O)[C@@H](NC(=O)[C@H](Cc1ccccc1)NC(=O)[C@H](CO)NC(=O)[C@H](CCC(=O)O)NC(=O)[C@H](C)NC(=O)[C@H](CCCNC(=N)N)NC(=O)[C@H](C)NC(=O)C(C)(C)NC(=O)[C@H](CC(=O)O)NC(=O)[C@H](CC(C)C)NC(=O)[C@H](Cc1ccc(O)cc1)NC(=O)[C@H](CCCCN)NC(=O)[C@H](CO)NC(=O)[C@H](Cc1ccc(O)cc1)NC(=O)[C@H](CC(=O)O)NC(=O)[C@H](CO)NC(=O)[C@@H](NC(=O)[C@H](Cc1ccccc1)NC(=O)[C@@H](NC(=O)CNC(=O)[C@H](CCC(N)=O)NC(=O)[C@H](CO)NC(=O)[C@@H](N)Cc1c[nH]cn1)[C@@H](C)O)[C@@H](C)O)C(C)C)C(=O)N[C@@H](CCC(=O)O)C(=O)N[C@@H](CO)C(=O)N[C@@H](C)C(=O)O` [Compound 30] (H-HSQGTFTSDYSKYLD[Aib]ARAESFVKWLESA-OH) came in with a solubility in “physchem” not below 1000 µg/mL. At human Glucagon-R, the pEC50 is 10.80. Also, in data set [1], the “Normalized purity pH 4.0 after 14 days” value worked out at 88.6% and the “Normalized purity pH 7.5 after 14 days” value was 91.4%.

`CC(C)C[C@H](NC(=O)[C@H](Cc1c[nH]c2ccccc12)NC(=O)[C@H](CCCCN)NC(=O)[C@@H](NC(=O)[C@H](Cc1ccccc1)NC(=O)[C@H](CO)NC(=O)[C@H](CCC(=O)O)NC(=O)[C@H](C)NC(=O)[C@H](CCCNC(=N)N)NC(=O)[C@H](C)NC(=O)C(C)(C)NC(=O)[C@H](CC(=O)O)NC(=O)[C@H](CC(C)C)NC(=O)[C@H](Cc1ccc(O)cc1)NC(=O)[C@H](CCCCN)NC(=O)[C@H](CO)NC(=O)[C@H](Cc1ccc(O)cc1)NC(=O)[C@H](CC(=O)O)NC(=O)[C@H](CO)NC(=O)[C@@H](NC(=O)[C@H](Cc1ccccc1)NC(=O)[C@@H](NC(=O)CNC(=O)[C@H](CCC(N)=O)NC(=O)[C@H](CO)NC(=O)[C@@H](N)Cc1c[nH]cn1)[C@@H](C)O)[C@@H](C)O)C(C)C)C(=O)N[C@@H](CCC(=O)O)C(=O)N[C@@H](CO)C(=O)N[C@H](C(=O)O)[C@@H](C)O` [Compound 15] (H-HSQGTFTSDYSKYLD[Aib]ARAESFVKWLEST-OH) registered a solubility in the data set “physchem” not below 1000 µg/mL. Also, the pEC50 at human Glucagon-R was 10.52. Further, in data set [1], the “Normalized purity pH 4.0 after 14 days” value is 89.1% and the “Normalized purity pH 7.5 after 14 days” value is recorded as 95.1%.

In the data set “physchem”, “H-HSQGTFTSDYSKYLDSARAEDFVKWLEET-OH [Compound 2]” showed a solubility not below 1000 µg/mL. Further, on human Glucagon-R, the pEC50 is 9.74. Also, in data set [1], the “Normalized purity pH 4.0 after 14 days” value was 83.5% and the “Normalized purity pH 7.5 after 14 days” value was 86.2%.

“H-HSQGTFTSDLSKYLDSARAEDFVKWLEST-OH [Compound 11]” displayed a solubility in “physchem” not below 1000 µg/mL. At human Glucagon-R, the pEC50 was 9.96. Further, in data set [1], the “Normalized purity pH 4.0 after 14 days” value amounted to 78.6% and the “Normalized purity pH 7.5 after 14 days” value worked out at 89.9%.

As for `CC(C)C[C@H](NC(=O)[C@H](Cc1c[nH]c2ccccc12)NC(=O)[C@H](CCCCN)NC(=O)[C@@H](NC(=O)[C@H](Cc1ccccc1)NC(=O)[C@H](CCC(=O)O)NC(=O)[C@H](CCC(=O)O)NC(=O)[C@H](C)NC(=O)[C@H](CCCNC(=N)N)NC(=O)[C@H](C)NC(=O)C(C)(C)NC(=O)[C@H](CC(=O)O)NC(=O)[C@H](CC(C)C)NC(=O)[C@H](Cc1ccc(O)cc1)NC(=O)[C@H](CCCCN)NC(=O)[C@H](CO)NC(=O)[C@H](Cc1ccc(O)cc1)NC(=O)[C@H](CC(=O)O)NC(=O)[C@H](CO)NC(=O)[C@@H](NC(=O)[C@H](Cc1ccccc1)NC(=O)[C@@H](NC(=O)CNC(=O)[C@H](CCC(N)=O)NC(=O)[C@H](CO)NC(=O)[C@@H](N)Cc1c[nH]cn1)[C@@H](C)O)[C@@H](C)O)C(C)C)C(=O)N[C@@H](CCC(=O)O)C(=O)N[C@@H](CCC(=O)O)C(=O)N[C@H](C(=O)O)[C@@H](C)O` [Compound 36] (H-HSQGTFTSDYSKYLD[Aib]ARAEEFVKWLEET-OH), in the data set “physchem”, the solubility was not below 1000 µg/mL. Also, on human Glucagon-R, the pEC50 is 11.00.

Consider `CC(C)C[C@H](NC(=O)[C@H](Cc1c[nH]c2ccccc12)NC(=O)[C@H](CO)NC(=O)[C@@H](NC(=O)[C@H](Cc1ccccc1)NC(=O)[C@H](CCC(=O)O)NC(=O)[C@H](CCC(=O)O)NC(=O)[C@H](C)NC(=O)[C@H](CCCNC(=N)N)NC(=O)[C@H](C)NC(=O)C(C)(C)NC(=O)[C@H](CC(=O)O)NC(=O)[C@H](CC(C)C)NC(=O)[C@H](Cc1ccc(O)cc1)NC(=O)[C@H](CCCCN)NC(=O)[C@H](CO)NC(=O)[C@H](Cc1ccc(O)cc1)NC(=O)[C@H](CC(=O)O)NC(=O)[C@H](CO)NC(=O)[C@@H](NC(=O)[C@H](Cc1ccccc1)NC(=O)[C@@H](NC(=O)CNC(=O)[C@H](CCC(N)=O)NC(=O)[C@H](CO)NC(=O)[C@@H](N)Cc1c[nH]cn1)[C@@H](C)O)[C@@H](C)O)C(C)C)C(=O)N[C@@H](CCC(=O)O)C(=O)N[C@@H](CCCCN)C(=O)N[C@H](C(=O)O)[C@@H](C)O` [Compound 33] (H-HSQGTFTSDYSKYLD[Aib]ARAEEFVSWLEKT-OH), for which the solubility in “physchem” was not below 1000 µg/mL. Moreover, the negative logarithm of the EC50 (pEC50) at human Glucagon-R is 10.36.

Molecule “H-HSQGTFTSDYSKYLDSARAEDFVEWLEST-OH [Compound 6]” gave a solubility in “physchem” not below 1000 µg/mL. The pEC50 at human Glucagon-R is 9.00.

In the data set “physchem”, “H-HSQGTFTSDYSRYLESARAEDFVKWLEST-OH [Compound 7]” showed a solubility not below 1000 µg/mL. Further, the pEC50 at human Glucagon-R is 9.03.

As for `CC(=O)NC[C@H](NC(=O)[C@H](CO)NC(=O)[C@@H](N)Cc1c[nH]cn1)C(=O)NCC(=O)N[C@H](C(=O)N[C@@H](Cc1ccccc1)C(=O)N[C@H](C(=O)N[C@@H](CO)C(=O)N[C@@H](CC(=O)O)C(=O)N[C@@H](Cc1ccc(O)cc1)C(=O)N[C@@H](CO)C(=O)N[C@@H](CCCCN)C(=O)N[C@@H](Cc1ccc(O)cc1)C(=O)N[C@@H](CC(C)C)C(=O)N[C@@H](CC(=O)O)C(=O)NC(C)(C)C(=O)N[C@@H](C)C(=O)N[C@@H](CCCNC(=N)N)C(=O)N[C@@H](C)C(=O)N[C@@H](CCC(=O)O)C(=O)N[C@@H](CCC(=O)O)C(=O)N[C@@H](Cc1ccccc1)C(=O)N[C@H](C(=O)N[C@@H](CCCCN)C(=O)N[C@@H](Cc1c[nH]c2ccccc12)C(=O)N[C@@H](CC(C)C)C(=O)N[C@@H](CCC(=O)O)C(=O)N[C@@H](CO)C(=O)N[C@H](C(N)=O)[C@@H](C)O)C(C)C)[C@@H](C)O)[C@@H](C)O` [Compound 41] (H-HS[Dap](Ac)GTFTSDYSKYLD[Aib]ARAEEFVKWLEST-NH2), the solubility in the data set “physchem” was not below 1000 µg/mL. For the same molecule, the pEC50 at human Glucagon-R is 11.42.

The molecule `CC(C)C[C@H](NC(=O)[C@H](Cc1c[nH]c2ccccc12)NC(=O)[C@H](CCC(=O)O)NC(=O)[C@@H](NC(=O)[C@H](Cc1ccccc1)NC(=O)[C@H](CCCCN)NC(=O)[C@H](CCC(=O)O)NC(=O)[C@H](C)NC(=O)[C@H](CCCNC(=N)N)NC(=O)[C@H](C)NC(=O)C(C)(C)NC(=O)[C@H](CC(=O)O)NC(=O)[C@H](CC(C)C)NC(=O)[C@H](Cc1ccc(O)cc1)NC(=O)[C@H](CCCCN)NC(=O)[C@H](CO)NC(=O)[C@H](Cc1ccc(O)cc1)NC(=O)[C@H](CC(=O)O)NC(=O)[C@H](CO)NC(=O)[C@@H](NC(=O)[C@H](Cc1ccccc1)NC(=O)[C@@H](NC(=O)CNC(=O)[C@H](CCC(N)=O)NC(=O)[C@H](CO)NC(=O)[C@@H](N)Cc1c[nH]cn1)[C@@H](C)O)[C@@H](C)O)C(C)C)C(=O)N[C@@H](CCC(=O)O)C(=O)N[C@@H](CO)C(=O)N[C@H](C(=O)O)[C@@H](C)O` [Compound 34] (H-HSQGTFTSDYSKYLD[Aib]ARAEKFVEWLEST-OH) yielded a solubility in the data set “physchem” not below 1000 µg/mL. The negative logarithm of the EC50 (pEC50) on human Glucagon-R is 10.55.

Turning to `CC(C)C[C@H](NC(=O)[C@H](Cc1c[nH]c2ccccc12)NC(=O)[C@H](CCCCN)NC(=O)[C@@H](NC(=O)[C@H](Cc1ccccc1)NC(=O)[C@H](CCC(=O)O)NC(=O)[C@H](CCC(=O)O)NC(=O)[C@H](C)NC(=O)[C@H](CCCNC(=N)N)NC(=O)[C@H](C)NC(=O)C(C)(C)NC(=O)[C@H](CCC(=O)O)NC(=O)[C@H](CC(C)C)NC(=O)[C@H](Cc1ccc(O)cc1)NC(=O)[C@H](CCCCN)NC(=O)[C@H](CO)NC(=O)[C@H](Cc1ccc(O)cc1)NC(=O)[C@H](CC(=O)O)NC(=O)[C@H](CO)NC(=O)[C@@H](NC(=O)[C@H](Cc1ccccc1)NC(=O)[C@@H](NC(=O)CNC(=O)[C@H](CCC(N)=O)NC(=O)[C@H](CO)NC(=O)[C@@H](N)Cc1c[nH]cn1)[C@@H](C)O)[C@@H](C)O)C(C)C)C(=O)N[C@@H](CCC(=O)O)C(=O)N[C@@H](CO)C(=O)N[C@H](C(=O)O)[C@@H](C)O` [Compound 37] (H-HSQGTFTSDYSKYLE[Aib]ARAEEFVKWLEST-OH), the solubility in the data set “physchem” was not below 1000 µg/mL. On human Glucagon-R, the pEC50 is 10.03.

As to “H-HSQGTFTSDYSKYLDEARAKSFVEWLEST-OH [Compound 28]”, the solubility in “physchem” is not below 1000 µg/mL. Besides, the pEC50 at human Glucagon-R is 10.46.
